This is an account of results in US4888353A, “Carboxamides useful as antiemetic or antipsychotic agents” (Erbamont, Inc., priority 1986, dated 1989).

Like-named read-outs stand apart in the source and are kept apart here.

The subject of one data set is dopamine receptors. To be noted: cited from earlier work.
The test system of a further data set is apomorphine emesis. Description: Antiemetic screen: Apomorphine Emesis (Dog). The data set is classed as in vivo, Beagle dogs. To be noted: s.c., apomorphine HCl 0.1 mg/kg sc one hour after test compound, 2 dogs; for ED100: Canis lupus familiaris, sc, 1 h, read-out: 100% Effect Dosage level (dosage at which both animals were protected from apomorphine emesis). The procedure:
Each of the test compounds shown in Table VIII was administered subcutaneously to two Beagle dogs at dosage levels of 0.05, 0.1, 1.0 and 10.0 mg/kg. One hour following administration of the test compound, each animal received 0.1 mg/kg, sc, of apomorphine HCl. Apomorphine consistently evokes an immediate emetic response through direct dopaminergic interaction at the medullary chemoreceptor trigger zone (CTZ). Antiemetic compounds which act at the CTZ and/or the midbrain vomiting center will block this effect. If both animals receiving a particular treatment are protected, (i.e., no emetic response within one hour after apomorphine), the test compound is considered active.

The test system of data set [1] is apomorphine induced climbing behavior. In words: Antipsychotic screen: apomorphine induced climbing behavior. The format is in vivo. To be noted: mouse, apomorphine 1 mg/kg, observed 20 minutes after; for ED50: 20 min, read-out: Approx. 50% ED, apomorphine climbing. The procedure: The effect of each of the benzofurancarboxamides shown in Table VIII below on apomorphine induced climbing behavior was tested under the conditions described by Costetin et al. "Rapid and Dissociated Changes in Sensitivities of Different Dopamine Receptors in Mouse Brain," Nature, 257, 405 (1975). Each mouse was administered from 0.1 to 50 mg/kg of test compound and antagonism was observed 20 minutes after injection of 1 mg/kg apomorphine induced climbing behavior.

[2] abbreviates: oral (marked in cell; head prints s.c.).
The mark [3] stands for this setting: ip, i.p. (marked in cell; head prints s.c.).

Turning to `CCN(CC)CCNC(=O)c1cc(Cl)c(N)cc1OC` [metoclopramide, 4-amino-5-chloro-N-[(2-diethylamino)ethyl]-2-methoxybenzamide], in the data set on dopamine receptors, the “release of prolactin (side effect)” value is listed as “increase in the release of prolactin”.
As for `CCN1CCCC1CNC(=O)c1cc([N+](=O)[O-])cc2c1OCC2` (centres unmarked) [drawing 98 R = NO2, N-(1-ethyl-2-pyrrolidinylmethyl)-5-nitro-2,3-dihydrobenzo[b]furan-7-carboxamide], in the data set on apomorphine emesis, the ED100 worked out at 1 mg/kg. Besides, the ED50 in data set [1] (setting [2]) is roughly 15 mg/kg; in data set [1] (setting [3]), roughly 20 mg/kg.
Regarding `CCN1CCCC1CNC(=O)c1ccc(OC)c2c1OC(C)C2` (centres unmarked) [drawing 99 R = H R' = OCH3], the ED50 in data set [1] (setting [2]) is roughly 25 mg/kg.
With `CCN1CCCC1CNC(=O)c1cc(S(N)(=O)=O)ccc1OC` (centres unmarked) [sulpiride, 2-methoxy-N-(1-ethyl-2-pyrrolidinylmethyl)-5-sulfamoyl benzamide], the “release of prolactin (side effect)” value in the data set with dopamine receptors is reported as “increase in the release of prolactin”.
Take `CCN1CCCC1CNC(=O)c1cccc2ccoc12` (centres unmarked) [drawing 97 R = H]: the ED100 in the data set on apomorphine emesis is 10 mg/kg. The ED50 in data set [1] (setting [3]) is roughly 12 mg/kg.
For the compound `CCN1CCCC1CNC(=O)c1cc(F)cc2ccoc12` (centres unmarked) [drawing 105 R = F R' = H], in the data set on apomorphine emesis, the ED100 stood at 1 mg/kg.
As for `CCN1CCCC1CNC(=O)c1cc(OC)cc2c1OC(C)C2` (centres unmarked) [drawing 99 R = OCH3 R' = H], in the data set on apomorphine emesis, the ED100 was found to be 0.1 mg/kg. Also, the ED50 in data set [1] (setting [2]) was roughly 1 mg/kg; in data set [1] (setting [3]), roughly 25 mg/kg.
Turning to `CCN1CCCC1CNC(=O)c1cccc2c1OC(C)C2` (centres unmarked) [drawing 99 R = H R' = H], the “100% Effect Dosage level (dosage at which both animals were protected from apomorphine emesis)” value in the data set with apomorphine emesis worked out at 0.05 mg/kg. Besides, the ED50 in data set [1] (setting [3]) is roughly 20 mg/kg.
As for `CCN1CCCC1CNC(=O)c1cc(Br)cc2ccoc12` (centres unmarked), in the data set with apomorphine emesis, the ED100 stood at 0.1 mg/kg. Besides, in data set [1] (setting [3]), the ED50 was roughly 0.5 mg/kg.
With `CCN1CCCC1CNC(=O)c1cc(C)cc2c1OCC2.Cl` (centres unmarked) [drawing 98 R = CH3, N-(1-ethyl-2-pyrrolidinylmethyl)-5-methyl-2,3-dihydrobenzo[b]furan-7-carboxamide hydrochloride], in the data set on apomorphine emesis, the ED100 was determined as 0.1 mg/kg. In addition, in data set [1] (setting [3]), the ED50 was roughly 3 mg/kg.
Turning to `O=C(NC1CCN(Cc2ccccc2)C1)c1cc(Br)cc2ccoc12` (centres unmarked), in data set [1] (setting [3]), the ED50 was roughly 30 mg/kg.
Regarding `CCN1CCCC1CNC(=O)c1cc(Cl)cc2ccoc12.O=C(O)/C=C/C(=O)O` (centres unmarked) [drawing 105 R = Cl R' = H, 5-chloro-N-(1-ethyl-2-pyrrolidinylmethyl)benzo[b]furan-7-carboxamide fumarate], in the data set on apomorphine emesis, the ED100 came out at 0.1 mg/kg. The ED50 in data set [1] (setting [2]) was roughly 5 mg/kg.
For the compound `CCN1CCCC1CNC(=O)c1ccc(Cl)c2c1OC(C)C2.O=C(O)/C=C/C(=O)O` (centres unmarked) [drawing 99 R = H R' = Cl, 4-chloro-N-(1-ethyl-2-pyrrolidinylmethyl)-2-methyl-2,3-dihydrobenzo[b]furan-7-carboxamide fumarate], the figures for the ED50 in data set [1] (setting [2]) and in data set [1] (setting [3]) were roughly 40 mg/kg and roughly 25 mg/kg, respectively.
Take `CCN1CCCC1CNC(=O)c1cc(Br)cc2c1OC(C)C2` (centres unmarked) [drawing 99 R = Br R' = H]: in the data set on apomorphine emesis, the ED100 amounted to 0.005 mg/kg. Also, the ED50 in data set [1] (setting [3]) is roughly 2 mg/kg.
For the compound `CCN1CCCC1CNC(=O)c1cccc2cc(C)oc12` (centres unmarked) [drawing 97 R = CH3], in the data set with apomorphine emesis, the ED100 is 10 mg/kg. For the same compound, in data set [1] (setting [3]), the ED50 is roughly 3 mg/kg.
For `CCN1CCCC1CNC(=O)c1cc(NC(C)=O)cc2c1OCC2.O=C(O)/C=C/C(=O)O` (centres unmarked) [drawing 98 R = NHCOCH3, 5-acetamido-N-(1-ethyl-2-pyrrolidinylmethyl)-2,3-dihydrobenzo[b]furan-7-carboxamide fumarate], the ED50 in data set [1] (setting [3]) is roughly 50 mg/kg.
For the compound `CCN1CCCC1CNC(=O)c1cc(Cl)c(Cl)c2c1OC(C)C2` (centres unmarked) [drawing 99 R = Cl R' = Cl], in data set [1] (setting [2]), the ED50 is roughly 10 mg/kg.
Regarding `CCN1CCCC1CNC(=O)c1cccc2c1OC(C)(C)C2` (centres unmarked) [drawing 109 R1 = R2 = CH3], the ED100 in the data set on apomorphine emesis was determined as 10 mg/kg. In data set [1] (setting [3]), the ED50 was roughly 100 mg/kg.
As for `CCN1CCCC1CNC(=O)c1cccc2c1OC(C)C2` (centres unmarked) [drawing 109 R1 = H,R2 = CH3], in the data set on apomorphine emesis, the “100% Effect Dosage level (dosage at which both animals were protected from apomorphine emesis)” value is on record as 0.85 mg/kg. Moreover, in data set [1] (i.p. (marked in cell; head prints s.c.)), the “Approx. 50% ED, apomorphine climbing” value is roughly 20 mg/kg.
In the case of `CCN1CCCC1CNC(=O)c1cc(Cl)cc2c1OCC2` (centres unmarked) [drawing 98 R = Cl], in the data set with apomorphine emesis, the ED100 turned out to be 1 mg/kg. In addition, the ED50 in data set [1] (setting [2]) was roughly 15 mg/kg; in data set [1] (setting [3]), roughly 5 mg/kg.
On to `CCN1CCCC1CNC(=O)c1cc(N)cc2c1OCC2.O=C(O)/C=C/C(=O)O` (centres unmarked) [drawing 98 R = NH2, 5-amino-N-(1-ethyl-2-pyrrolidinylmethyl)-2,3-dihydrobenzo[b]furan-7-carboxamide fumarate], for which the ED50 was roughly 20 mg/kg in data set [1] (setting [2]) and roughly 25 mg/kg in data set [1] (setting [3]).
Consider `CCN1CCCC1CNC(=O)c1cccc2c1OCC2` (centres unmarked) [drawing 98 R = H], for which the ED100 in the data set with apomorphine emesis stood at 1 mg/kg. Besides, the ED50 in data set [1] (setting [3]) is roughly 20 mg/kg.
In the case of `CCN1CCCC1CNC(=O)c1cc(NS(C)(=O)=O)cc2c1OCC2` (centres unmarked) [drawing 98 R = NHSO2 CH3, N-(1-ethyl-2-pyrrolidinylmethyl)-5-methanesulfonamido-2,3-dihydrobenzo[b]furan-7-carboxamide], the ED100 in the data set on apomorphine emesis was 1 mg/kg. The ED50 in data set [1] (setting [2]) was roughly 50 mg/kg.
On to `CCN1CCCC1CNC(=O)c1cc(Br)cc2c1OCC2` (centres unmarked) [drawing 98 R = Br], for which, in the data set with apomorphine emesis, the ED100 is 1 mg/kg. Moreover, the ED50 in data set [1] (setting [2]) is roughly 15 mg/kg.
